Laboratory results: patent publication US7223834B2, “Assays and peptide substrate for determining aggrecan degrading metallo protease activity” (Bristol-Myers Squibb Pharma Company, priority 1997, dated 2007)

Tested on: ADMP
Conditions: GLU to GLN substitution at position 373 (P1)

QTVTWPDMELPLPRNITEGQARGSVILTVK-Biotin [30-IP]
mode of inhibition of the enzyme: competitive inhibitor
